# Source: ChEMBL document CHEMBL3992485 (Medchemcomm, 2016)
# Activity calls are given as the source filed them. The rule behind the calls is not given here.
# Experiments:
# HeLa [1] = assay: Induction of apoptosis in human HeLa cells assessed as late apoptotic cells at 0.5 uM after 36 hrs by Annexin-V-FITC/propidium iodide staining based flow cytometry (reference value: 2.64%); format: functional
# HeLa [2] = assay: Cell cycle arrest in human HeLa cells assessed as accumulation at G2/M phase at 0.8 uM after 12 hrs by propidium iodide staining based flow cytometry (reference value: 2.15%); format: functional
# HeLa [3] = assay: Induction of apoptosis in human HeLa cells assessed as viable cells at 0.2 uM after 24 hrs by Annexin-V-FITC/propidium iodide staining based flow cytometry (reference value: 94.4%); format: functional; details: read-out: Activity
# HeLa [4] = assay: Induction of apoptosis in human HeLa cells assessed as early apoptotic cells at 0.5 uM after 36 hrs by Annexin-V-FITC/propidium iodide staining based flow cytometry (reference value: 6.02%); format: functional
# HeLa [5] = assay: Inhibition of microtubule polymerization in human HeLa cells assessed as effect on microtubule organization at 0.2 uM after 24 hrs by DAPI staining based confocal microscopic analysis; format: cell-based
# HeLa [6] = assay: Cell cycle arrest in human HeLa cells assessed as accumulation at G2/M phase at 0.4 uM after 12 hrs by propidium iodide staining based flow cytometry (reference value: 2.15%); format: functional
# HeLa [7] = assay: Cell cycle arrest in human HeLa cells assessed as accumulation at G1 phase at 0.5 uM after 36 hrs by propidium iodide staining based flow cytometry (reference value: 79.19%); format: functional
# HeLa [8] = assay: Cell cycle arrest in human HeLa cells assessed as accumulation at S phase at 0.4 uM after 12 hrs by propidium iodide staining based flow cytometry (reference value: 49.41%); format: functional
# HeLa [9] = assay: Cell cycle arrest in human HeLa cells assessed as accumulation at S phase at 0.5 uM after 12 hrs by propidium iodide staining based flow cytometry (reference value: 33.78%); format: functional
# HeLa [10] = assay: Cell cycle arrest in human HeLa cells assessed as accumulation at G2/M phase after 24 hrs by propidium iodide staining based flow cytometry; format: functional
# HeLa [11] = assay: Cell cycle arrest in human HeLa cells assessed as accumulation at G2/M phase at 0.1 uM after 24 hrs by propidium iodide staining based flow cytometry (reference value: 2.15%); format: functional
# HeLa [12] = assay: Induction of apoptosis in human HeLa cells assessed as early apoptotic cells at 0.2 uM after 24 hrs by Annexin-V-FITC/propidium iodide staining based flow cytometry (reference value: 2.41%); format: functional
# HeLa [13] = assay: Inhibition of microtubule polymerization in human HeLa cells assessed as appearance of short and curled microtubule fragments at 0.4 uM after 24 hrs by DAPI staining based confocal microscopic analysis; format: cell-based
# [14] = Inhibition of tubulin polymerization in bovine brain assessed as reduction in tubulin assembly after 20 mins by spectrophotometric method; design: species or system Bos taurus
# HeLa [15] = assay: Cell cycle arrest in human HeLa cells assessed as accumulation at G1 phase at 0.5 uM after 24 hrs by propidium iodide staining based flow cytometry (reference value: 79.19%); format: functional
# HeLa [16] = assay: Induction of apoptosis in human HeLa cells assessed as necrotic cells at 0.2 uM after 24 hrs by Annexin-V-FITC/propidium iodide staining based flow cytometry (reference value: 0.084%); format: functional
# HeLa [17] = assay: Inhibition of microtubule polymerization in human HeLa cells at 0.2 uM after 24 hrs by DAPI staining based confocal microscopic analysis; format: cell-based
# HeLa [18] = assay: Induction of apoptosis in human HeLa cells assessed as necrotic cells at 0.4 uM after 24 hrs by Annexin-V-FITC/propidium iodide staining based flow cytometry (reference value: 0.084%); format: functional
# HeLa [19] = assay: Cell cycle arrest in human HeLa cells assessed as accumulation at G1 phase at 0.4 uM after 12 hrs by propidium iodide staining based flow cytometry (reference value: 85.81%); format: functional
# HeLa [20] = assay: Cell cycle arrest in human HeLa cells assessed as accumulation at G1 phase at 0.1 uM after 24 hrs by propidium iodide staining based flow cytometry (reference value: 85.81%); format: functional
# HeLa [21] = assay: Induction of apoptosis in human HeLa cells assessed as necrotic cells at 0.5 uM after 12 hrs by Annexin-V-FITC/propidium iodide staining based flow cytometry (reference value: 0.35%); format: functional
# A549 = assay: Antiproliferative activity against human A549 cells measured after 24 hrs by MTT assay; format: functional, cell-based; details: A549, 24 h
# HeLa [22] = assay: Induction of apoptosis in human HeLa cells assessed as necrotic cells at 0.8 uM after 24 hrs by Annexin-V-FITC/propidium iodide staining based flow cytometry (reference value: 0.084%); format: functional
# HeLa [23] = assay: Induction of apoptosis in human HeLa cells assessed as late apoptotic cells at 0.4 uM after 24 hrs by Annexin-V-FITC/propidium iodide staining based flow cytometry (reference value: 3.1%); format: functional
# HeLa [24] = assay: Induction of apoptosis in human HeLa cells assessed as late apoptotic cells at 0.2 uM after 24 hrs by Annexin-V-FITC/propidium iodide staining based flow cytometry (reference value: 3.1%); format: functional
# HeLa [25] = assay: Cell cycle arrest in human HeLa cells assessed as accumulation at S phase at 0.1 uM after 24 hrs by propidium iodide staining based flow cytometry (reference value: 49.41%); format: functional
# HeLa [26] = assay: Cell cycle arrest in human HeLa cells assessed as accumulation at G2/M phase at 0.5 uM after 36 hrs by propidium iodide staining based flow cytometry (reference value: 8.14%); format: functional
# HeLa [27] = assay: Induction of apoptosis in human HeLa cells assessed as late apoptotic cells at 0.5 uM after 12 hrs by Annexin-V-FITC/propidium iodide staining based flow cytometry (reference value: 2.64%); format: functional
# HeLa [28] = assay: Cell cycle arrest in human HeLa cells assessed as accumulation at S phase at 0.8 uM after 12 hrs by propidium iodide staining based flow cytometry (reference value: 49.41%); format: functional
# HepG2 = assay: Antiproliferative activity against human HepG2 cells measured after 24 hrs by MTT assay; format: functional, cell-based; details: HepG2, 24 h
# HeLa [29] = assay: Induction of apoptosis in human HeLa cells assessed as early apoptotic cells at 0.8 uM after 24 hrs by Annexin-V-FITC/propidium iodide staining based flow cytometry (reference value: 2.41%); format: functional
# HeLa [30] = assay: Induction of apoptosis in human HeLa cells assessed as late apoptotic cells at 0.8 uM after 24 hrs by Annexin-V-FITC/propidium iodide staining based flow cytometry (reference value: 3.1%); format: functional
# HeLa [31] = assay: Cell cycle arrest in human HeLa cells assessed as accumulation at S phase at 0.2 uM after 12 hrs by propidium iodide staining based flow cytometry (reference value: 49.41%); format: functional
# HeLa [32] = assay: Cell cycle arrest in human HeLa cells assessed as accumulation at G2/M phase at 0.5 uM by propidium iodide staining based flow cytometry; format: functional; details: TDE = time-dependent effect
# HeLa [33] = assay: Cell cycle arrest in human HeLa cells assessed as accumulation at S phase at 0.5 uM after 36 hrs by propidium iodide staining based flow cytometry (reference value: 33.78%); format: functional
# HeLa [34] = assay: Antiproliferative activity against human HeLa cells measured after 24 hrs by MTT assay; format: functional, cell-based
# HeLa [35] = assay: Induction of apoptosis in human HeLa cells assessed as viable cells at 0.5 uM after 24 hrs by Annexin-V-FITC/propidium iodide staining based flow cytometry (reference value: 91%); format: functional; details: read-out: Activity
smiles,measurement,setting,value
CCn1cc(C(=O)N2CCN(S(=O)(=O)c3c(C(C)C)cc(C(C)C)cc3C(C)C)CC2)c2ccccc21,Activity,HeLa [1],21.2%
same,Activity,HeLa [2],83.61%
same,viability at 0.2 µM,HeLa [3],71%
same,Activity,HeLa [4],25.3%
same,inhibition,HeLa [5],Active
same,Activity,HeLa [6],51.71%
same,Activity,HeLa [7],1.19%
same,Activity,HeLa [8],40.08%
same,Activity,HeLa [9],51.97%
same,Activity,HeLa [10],Dose-dependent effect
same,Activity,HeLa [11],15.09%
same,Activity,HeLa [12],21.7%
same,inhibition,HeLa [13],Active
same,IC50,[14],1820 nM
same,Activity,HeLa [15],5.23%
same,Activity,HeLa [16],0.098%
same,inhibition,HeLa [17],Active
same,Activity,HeLa [18],0.581%
same,Activity,HeLa [19],22.09%
same,Activity,HeLa [20],54.97%
same,Activity,HeLa [21],0.03%
same,IC50,A549,590 nM
same,Activity,HeLa [22],1.05%
same,Activity,HeLa [23],12.8%
same,Activity,HeLa [24],7.24%
same,Activity,HeLa [25],49.47%
same,Activity,HeLa [26],65.29%
same,Activity,HeLa [27],3.97%
same,Activity,HeLa [28],53.83%
same,IC50,HepG2,490 nM
same,Activity,HeLa [29],32.6%
same,Activity,HeLa [30],22.4%
same,Activity,HeLa [31],61.18%
same,Activity,HeLa [32],Tde
same,Activity,HeLa [33],53.25%
same,IC50,HeLa [34],240 nM
same,viability at 0.5 µM,HeLa [35],72.7%
